Results on 1 molecule are retold here after US6596754B1, “Preventives/remedies for multiple organ failure” (Daiichi Pharmaceuticals Co., Ltd., priority 1998, dated 2003).

What all share (type): in vivo, Rats (Slc: Wistar)
In experiment [1] the test system is LPS intravenous administration shock model. Put plainly: LPS intravenous administration shock model, mortality. Particulars: for Mortality in terms of percentage(%) / Mortality: rats, LPS 20 mg/kg i.v., 24 hours after LPS; for Mortality in terms of percentage(%): control 100%; for Mortality: dead/total. As to the method:
Rats (Slc: Wistar, male, 10 weeks old, n=15) were anesthetized by halothane. Subsequently, lipopolysaccharide (LPS) (E. coli, 055: B5) (20 mg/2 ml/kg) was administered to each rat through the femoral vein. Immediately after administration, (2S)-2-[4-([(3S)-1-acetimidoyl-3-pyrrolidinyl]oxy)phenyl]-3-(7-amidino-2-naphthyl)propionic acid hydrochloride pentahydrate (hereinafter referred to as “Compound A”) was subcutaneously administered to each rat at a dose of 0.3, 1, or 3 mg/kg. The mortality for the rats was observed 24 hours after the administration of LPS.

Another experiment has as its system IL-6. The experiment in a line: Hypercytokinemia: plasma IL-6 by ELISA after LPS administration. Particulars: rats, LPS 20 mg/kg i.v.; 1 or 3 mg/kg s.c.; six hours after LPS; FIG. 1; #p <0.1. On the procedure:
Rats (Slc: Wistar, male, 10 weeks old, n=7) were anesthetized by halothane. Subsequently, LPS (E. coli, 055: B5) (20 mg/2 ml/kg) was administered to each rat through the femoral vein. Immediately after administration, compound A was subcutaneously administered to each rats at a dose of 1 or 3 mg/kg. Six hours after administration of LPS, blood was collected from the abdominal aorta in the presence of citric acid, and plasma IL-6 was measured by ELISA.
In general terms: ELISA stands for enzyme-linked immunosorbent assay.

The test system of experiment [2] is liver function parameters (GOT, GPT, LDH, and T-BIL). Put plainly: Liver disease: liver function parameters (GOT, GPT, LDH, T-BIL) after LPS administration. Particulars: six hours after LPS; for TBIL / GOT / GPT / LDH: rats, LPS 20 mg/kg i.v., Mean ± S.E. (n = 7); for TBIL: control 0.46 ± 0.15; for GOT: control 3404 ± 406; for GPT: control 3716 ± 496; for LDH: control 23847 ± 3225. On the procedure: Rats (Slc: Wistar, male, 10 weeks old, n=7) were anesthetized by halothane. Subsequently, LPS (E. coli, 055: B5) (20 mg/2 ml/kg) was administered to each rat through the femoral vein. Immediately after administration, compound A was subcutaneously administered to each rat at a dose of 0.3, 1, or 3 mg/kg. Six hours after LPS administration, blood was collected from the abdominal aorta in the presence of citric acid, and the blood was collected to measurement of liver function parameters (GOT, GPT, LDH, and T-BIL).

Turning to `CC(=N)N1CC[C@H](Oc2ccc([C@H](Cc3ccc4ccc(C(=N)N)cc4c3)C(=O)O)cc2)C1.Cl.O.O.O.O.O` [Compound A, (2S)-2-[4-([(3S)-1-acetimidoyl-3-pyrrolidinyl]oxy)phenyl]-3-(7-amidino-2-naphthyl)propionic acid hydrochloride pentahydrate], the “Effect on mortality for rats (in words)” value in experiment [1] (0.3, 1, 3 mg/kg s.c., χ2 test p<0.001) is given as “dose-dependently decreases the mortality for rats”. Further, in experiment [1] (0.3 mg/kg s.c.), the “Mortality in terms of percentage(%)” value is listed as 80% and the Mortality is 12/15. In experiment [1] (1 mg/kg s.c.), the “Mortality in terms of percentage(%)” value amounted to 40% and the Mortality is recorded as 6/15. In addition, in experiment [1] (3 mg/kg s.c.), the “Mortality in terms of percentage(%)” value came to 7% and the Mortality is 1/15. In the experiment on IL-6, the “Concentration of plasma IL-6 (in words)” value is “dose-dependently suppressed the increase in concentration of IL-6”. Besides, the “Effect on liver function parameters (in words)” value in experiment [2] (0.3, 1, 3 mg/kg s.c.) is listed as “dose-dependently suppressed the increase in each liver function parameter”. In experiment [2] (0.3 mg/kg s.c.), this molecule had a TBIL of 0.48 ± 0.22 mg/dL, a GOT of 1939 ± 442 IU/L, a GPT of 1986 ± 467 IU/L and an LDH of 11560 ± 2983 IU/L. In addition, in experiment [2] (1 mg/kg s.c.), the TBIL was determined as 0.20 ± 0.10 mg/dL, the GOT came out at 1183 ± 281 IU/L, the GPT was found to be 1216 ± 352 IU/L and the LDH came to 6297 ± 2291 IU/L. Further, in experiment [2] (3 mg/kg s.c.), the TBIL worked out at 0.10 ± 0.01 mg/dL, the GOT worked out at 364 ± 42 IU/L, the GPT is 189 ± 22 IU/L and the LDH came to 972 ± 186 IU/L.
